In article PMC5732813, “Novel piplartine-containing ruthenium complexes: synthesis, cell growth inhibition, apoptosis induction and ROS production on HCT116 cells” (Oncotarget, 2017):
Values joined by “and” are separate entries in the source; they are usually repeats but may differ in a detail not shown here. Identical values can stand only once.

What was measured:
[1] = system: HepG2 (human hepatocellular carcinoma); experiment: Cytotoxic activity, alamar blue assay, HepG2; type: cell-based
Text: (§1) HCT116 (human colon carcinoma), HepG2 (human hepatocellular carcinoma), HSC-3 (human oral squamous cell carcinoma), SCC-4 (human oral squamous cell carcinoma), SCC-9 (human oral squamous cell carcinoma), HL-60 (human promyelocytic leukemia), K-562 (human chronic myelogenous leukemia), B16-F10 (murine melanoma), MRC-5 (human lung fibroblast), WT SV40 MEF (wild-type immortalized mouse embryonic fibroblast) and BAD KO SV40 MEF (BAD gene knockout immortalized mouse embryonic fibroblast) cell lines were obtained from the American Type Culture Collection (ATCC, Manassas, VA, USA) and cultured in RPMI-1640 medium (Gibco-BRL, Gaithersburg, MD, USA) with 10% fetal bovine serum (Life, Carlsbad, CA, USA), 2 mM L-glutamine (Vetec Química Fina, Duque de Caxias, RJ, Brazil) and 50 μg/mL gentamycin (Life, Carlsbad, CA, USA). Adherent cells were collected by treatment with 0.25% trypsin EDTA solution (Gibco-BRL, Gaithersburg, MD, USA). All cell lines were cultured in flasks at 37°C in 5% CO2 and sub-cultured every 3-4 days to maintain exponential growth.
(§2) Cell viability was quantified using the alamar blue assay, according to Ahmed et al.. Cells were inserted in 96-well plates for all experiments (7 x 10^4 cells/mL for adherent cells or 3 x 10^5 cells/mL for suspended cells in 100 μL of medium). […] Negative controls received the vehicle that was used for diluting the compounds tested.

[2] = system: SCC-9 (human oral squamous cell carcinoma); experiment: Cytotoxic activity, alamar blue assay, SCC-9; type: cell-based
Text: as §1, §2

[3] = system: HL-60 (human promyelocytic leukemia); experiment: Cytotoxic activity, alamar blue assay, HL-60; type: cell-based
Text: as §1, §2

[4] = system: BAD KO SV40 MEF (BAD gene knockout immortalized mouse embryonic fibroblast); experiment: Cytotoxic activity, alamar blue assay, BAD KO SV40 MEF; type: cell-based; details: BAD KO SV40 MEF, 72 h incubation, alamar blue; read-out: IC50
Text: as §1, §2

[5] = system: HCT116 cells; experiment: Internucleosomal DNA fragmentation and cell cycle distribution (DNA content, flow cytometry); type: cell-based, human
Protocol: Cells were harvested in a permeabilization solution containing 0.1% triton X-100 (Sigma Chemical Co. St Louis, MO, USA), 2 μg/mL propidium iodide (Sigma Chemical Co. St Louis, MO, USA), 0.1% sodium citrate and 100 μg/mL RNAse (Sigma Chemical Co. St Louis, MO, USA) and incubated in the dark for 15 min at room temperature.

[6] = system: HCT116 cells; experiment: Gene expression analysis by qPCR array (TaqMan Array Human Molecular Mechanisms of Cancer); type: cell-based; details: HCT116, 12 h; DOX 1 μM, PL 10 μM, 1 2.5 μM, 2 5 μM; negative control RQ = 1.0
Protocol: HCT116 cells were plated in bottles tissue culture (7x10^4 cells/mL). After 12h of incubation with the complexes, total RNA was isolated from the cells using the RNeasy Plus mini kit (Qiagen, Hilden, Germany) according to the manufacturer’s instructions. The RNA was evaluated by fluorimetry (QuBit™, Life Technologies, Camarillo, CA, EUA). RNA reverse transcription was performed using Superscript VILO™ (Invitrogen Corporation, Waltham, MA, USA). A 96-well plate TaqMan® Array Human Molecular Mechanisms of Cancer (ID 4418806, Applied Biosystems™, Foster City, CA, EUA) was used for the gene expression study by qPCR. The reactions were conducted in the ABI ViiA7 (Applied Biosystems™, Foster City, CA, EUA). The cycle conditions comprised 2 min at 50 °C, 20 s at 95 °C, then 40 cycles of 3 s at 95 °C and 30 s at 60 °C. […] The GAPDH, 18S and HPRT1 genes were used for normalization. All experiments were performed in DNase/RNase free conditions.

[Ru(piplartine)(dppf)(bipy)](PF6)2 [Complex 1]
more potent than metal-free piplartine ([1]; HepG2, IC50 72h): 4 fold | Selectivity index (SI) ([1]; SI = IC50[MRC-5]/IC50[HepG2]): 2.0 | Selectivity index (SI) ([1]; SI = IC50[PBMC]/IC50[HepG2]): 1.1 | more potent than metal-free piplartine ([2]; SCC9, IC50 72h): 4 fold | Selectivity index (SI) ([2]; SI = IC50[MRC-5]/IC50[SCC-9]): 0.8 | Selectivity index (SI) ([2]; SI = IC50[PBMC]/IC50[SCC-9]): 0.4 | more potent than metal-free piplartine ([3]; HL-60, IC50 72h): 4 fold | Selectivity index (SI) ([3]; SI = IC50[MRC-5]/IC50[HL-60]): 1.0 | Selectivity index (SI) ([3]; SI = IC50[PBMC]/IC50[HL-60]): 0.5 | IC50 [4]: 3.2 µM | DNA content (%) G0/G1 [5]: 28.6 ± 5.9% and 39.4 ± 1.8% and 30.0 ± 5.8 % and 42.5 ± 1.7% | DNA content (%) S [5]: 11.5 ± 2.5% and 20.1 ± 1.4% and 13.5 ± 1.5% and 21.9 ± 2.5% | RQ ABL1 [6]: 1.302 | RQ AKT1 [6]: 1.469 | RQ AKT2 [6]: 1.663 | RQ APC [6]: 0.972 | RQ BAX [6]: 1.572 | RQ BCAR1 [6]: 1.687 | RQ BCL2 [6]: 2.4 and 2.367 | RQ BCL2L1 [6]: 1.936 | RQ BCL2L11 [6]: 1.710 | RQ BID [6]: 0.743 | RQ BRAF [6]: 1.072 | RQ CASP8 [6]: 1.583 | RQ CCND1 [6]: 1.2 and 1.153 | RQ CCND3 [6]: 1.447 | RQ CCNE1 [6]: 1.075 | RQ CDC42 [6]: 1.755 | RQ CDH1 [6]: 3.7 and 3.659 | RQ CDK2 [6]: 1.467 | RQ CDK4 [6]: 1.390 | RQ CDKN1A [6]: 1.331 | RQ CDKN1B [6]: 1.039 | RQ CDKN2A [6]: 2.5 and 2.469 | RQ CRK [6]: 1.184 | RQ CTNNB1 [6]: 1.131 | RQ CYCS [6]: 2.0 and 1.961 | RQ DVL1 [6]: 1.576 | RQ E2F1 [6]: 1.631 | RQ EGFR [6]: 1.3 and 1.294 | RQ ELK1 [6]: 1.275 | RQ ERBB2 [6]: 1.941 | RQ FADD [6]: 0.6 and 0.556 | RQ FAS [6]: 1.496 | RQ FGF2 [6]: 1.120 | RQ FN1 [6]: 3.8 and 3.841 | RQ FOS [6]: 11.9 and 11.943 | RQ FYN [6]: 2.5 and 2.474 | RQ FZD1 [6]: 2.3 and 2.253 | RQ GRB2 [6]: 0.961 | RQ GSK3B [6]: 1.191 | RQ GUSB [6]: 4.5 | RQ HRAS [6]: 0.777 | RQ IGF1R [6]: 2.3 and 2.283 | RQ ITGA2B [6]: 3.1 and 3.092 | RQ ITGAV [6]: 1.4 and 1.426 | RQ ITGB1 [6]: 0.838 | RQ JUN [6]: 3.7 and 3.708 | RQ KDR [6]: 4.4 and 4.404 | RQ KRAS [6]: 0.886 | RQ MAP2K1 [6]: 0.8 and 0.822 | RQ MAP3K5 [6]: 0.3 and 0.308 | RQ MAPK1 [6]: 1.305 | RQ MAPK3 [6]: 2.0 and 2.014 | RQ MAPK8 [6]: 1.411 | RQ MAPK14 [6]: 1.008 | RQ MAX [6]: 3.6 and 3.614 | RQ MDM2 [6]: 0.794 | RQ MYC [6]: 1.065 | RQ NFKB1 [6]: 1.288 | RQ NFKB2 [6]: 1.340 | RQ NFKBIA [6]: 2.0 and 2.007 | RQ NRAS [6]: 1.178 | RQ PIK3CA [6]: 0.880 | RQ PIK3R1 [6]: 2.5 and 2.456 | RQ PTEN [6]: 2.0 and 2.037 | RQ PTK2 [6]: 1.6 and 1.561 | RQ PTK2B [6]: 2.3 and 2.270 | RQ RAC1 [6]: 1.1 and 1.059 | RQ RAF1 [6]: 2.0 and 1.951 | RQ RB1 [6]: 1.003 | RQ RELA [6]: 1.390 | RQ RHOA [6]: 1.129 | RQ SHC1 [6]: 0.4 and 0.436 | RQ SMAD4 [6]: 1.4 and 1.409 | RQ SOS1 [6]: 1.2 and 1.161 | RQ SPP1 [6]: 2.5 | RQ SRC [6]: 1.584 | RQ TGFB1 [6]: 0.911 | RQ TGFBR1 [6]: 1.324 | RQ TGFBR2 [6]: 2.4 and 2.358 | RQ TP53 [6]: 3.5 and 3.478 | RQ VEGFA [6]: 1.664
